Laboratory results reported in PubChem BioAssay (NCI).
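GI50 marks 50% less growth. TGI is the concentration that stops growth completely.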

Legend:
Assay in all cases: NCI anticancer screen, dose series, 384-well format
NCI-H522 lung = test system: NCI-H522 lung
COLO 205 colon = test system: COLO 205 colon
ACHN renal = test system: ACHN renal
BT-549 breast = test system: BT-549 breast
MCF7 breast = test system: MCF7 breast
NCI/ADR-RES ovarian = test system: NCI/ADR-RES ovarian
EKVX NSCLC = test system: EKVX NSCLC
SK-MEL-28 melanoma = test system: SK-MEL-28 melanoma
OVCAR-5 ovarian = test system: OVCAR-5 ovarian
HCT-15 colon = test system: HCT-15 colon
786-0 renal = test system: 786-0 renal
MDA-MB-231 breast = test system: MDA-MB-231 breast
A549 NSCLC = test system: A549 NSCLC
SNB-19 CNS = test system: SNB-19 CNS
SF-539 CNS = test system: SF-539 CNS
MDA-MB-468 breast = test system: MDA-MB-468 breast
SR leukemia = test system: SR leukemia
UACC-257 melanoma = test system: UACC-257 melanoma
OVCAR-4 ovarian = test system: OVCAR-4 ovarian
SF-295 CNS = test system: SF-295 CNS
T-47D breast = test system: T-47D breast
SNB-75 CNS = test system: SNB-75 CNS
SK-OV-3 ovarian = test system: SK-OV-3 ovarian
HT29 colon = test system: HT29 colon
CCRF-CEM leukemia = test system: CCRF-CEM leukemia
MALME-3M melanoma = test system: MALME-3M melanoma
NCI-H322M lung = test system: NCI-H322M lung
RXF 393 renal = test system: RXF 393 renal
OVCAR-3 ovarian = test system: OVCAR-3 ovarian
DU-145 prostate = test system: DU-145 prostate
HS 578T breast = test system: HS 578T breast
SK-MEL-5 melanoma = test system: SK-MEL-5 melanoma
SW-620 colon = test system: SW-620 colon
KM12 colon = test system: KM12 colon
OVCAR-8 ovarian = test system: OVCAR-8 ovarian
SN12C renal = test system: SN12C renal
M14 melanoma = test system: M14 melanoma
NCI-H460 NSCLC = test system: NCI-H460 NSCLC
HOP-62 NSCLC = test system: HOP-62 NSCLC
PC-3 prostate = test system: PC-3 prostate
HOP-92 NSCLC = test system: HOP-92 NSCLC
SF-268 CNS = test system: SF-268 CNS
MOLT-4 leukemia = test system: MOLT-4 leukemia
NCI-H23 lung = test system: NCI-H23 lung
IGROV1 ovarian = test system: IGROV1 ovarian
RPMI-8226 leukemia = test system: RPMI-8226 leukemia
U251 glioblastoma = test system: U251 glioblastoma
NCI-H226 lung = test system: NCI-H226 lung
HL-60(TB) leukemia = test system: HL-60(TB) leukemia
CAKI-1 renal = test system: CAKI-1 renal
TK-10 renal = test system: TK-10 renal
MDA-MB-435 melanoma = test system: MDA-MB-435 melanoma
SK-MEL-2 melanoma = test system: SK-MEL-2 melanoma
UACC-62 melanoma = test system: UACC-62 melanoma

Compound: NC(=S)N/N=C/c1ncccc1N
- GI50 (NCI-H522 lung): 561 nM
- TGI (NCI-H522 lung): 7760 nM
- GI50 (COLO 205 colon): 879 nM
- TGI (COLO 205 colon): 2230 nM
- GI50 (ACHN renal): 281 nM
- TGI (ACHN renal): 585 nM
- GI50 (BT-549 breast): 675 nM
- TGI (BT-549 breast): 3940 nM
- GI50 (MCF7 breast): 487 nM
- TGI (MCF7 breast): 10800 nM
- GI50 (NCI/ADR-RES ovarian): 1440 nM
- TGI (NCI/ADR-RES ovarian): 3040 nM
- GI50 (EKVX NSCLC): 3280 nM
- TGI (EKVX NSCLC): 18300 nM
- GI50 (SK-MEL-28 melanoma): 2670 nM
- TGI (SK-MEL-28 melanoma): 41600 nM
- GI50 (OVCAR-5 ovarian): 2690 nM
- TGI (OVCAR-5 ovarian): 8730 nM
- GI50 (HCT-15 colon): 3470 nM
- TGI (HCT-15 colon): > 100000 nM
- GI50 (786-0 renal): 242 nM
- TGI (786-0 renal): 540 nM
- GI50 (MDA-MB-231 breast): 616 nM
- TGI (MDA-MB-231 breast): 11900 nM
- GI50 (A549 NSCLC): 1450 nM
- TGI (A549 NSCLC): > 100000 nM
- GI50 (SNB-19 CNS): 709 nM
- TGI (SNB-19 CNS): 4140 nM
- GI50 (SF-539 CNS): 212 nM
- TGI (SF-539 CNS): 451 nM
- GI50 (MDA-MB-468 breast): 1410 nM
- TGI (MDA-MB-468 breast): 3560 nM
- GI50 (SR leukemia): 192 nM
- TGI (SR leukemia): 337 nM
- GI50 (UACC-257 melanoma): 3170 nM
- TGI (UACC-257 melanoma): 15000 nM
- GI50 (OVCAR-4 ovarian): 4390 nM
- TGI (OVCAR-4 ovarian): 9350 nM
- GI50 (SF-295 CNS): 1100 nM
- TGI (SF-295 CNS): 3860 nM
- GI50 (T-47D breast): 1330 nM
- TGI (T-47D breast): 7190 nM
- GI50 (SNB-75 CNS): 344 nM
- TGI (SNB-75 CNS): 2900 nM
- GI50 (SK-OV-3 ovarian): 2670 nM
- TGI (SK-OV-3 ovarian): 7610 nM
- GI50 (HT29 colon): 2210 nM
- TGI (HT29 colon): 43400 nM
- GI50 (CCRF-CEM leukemia): 291 nM
- TGI (CCRF-CEM leukemia): 622 nM
- GI50 (MALME-3M melanoma): 378 nM
- TGI (MALME-3M melanoma): 933 nM
- GI50 (NCI-H322M lung): 7280 nM
- TGI (NCI-H322M lung): > 100000 nM
- GI50 (RXF 393 renal): 2080 nM
- TGI (RXF 393 renal): 23600 nM
- GI50 (OVCAR-3 ovarian): 532 nM
- TGI (OVCAR-3 ovarian): 8640 nM
- GI50 (DU-145 prostate): 584 nM
- TGI (DU-145 prostate): 3630 nM
- GI50 (HS 578T breast): 654 nM
- TGI (HS 578T breast): > 100000 nM
- GI50 (SK-MEL-5 melanoma): 530 nM
- TGI (SK-MEL-5 melanoma): 1960 nM
- GI50 (SW-620 colon): 697 nM
- TGI (SW-620 colon): 21400 nM
- GI50 (KM12 colon): 3520 nM
- TGI (KM12 colon): 24800 nM
- GI50 (OVCAR-8 ovarian): 241 nM
- TGI (OVCAR-8 ovarian): 499 nM
- GI50 (SN12C renal): 730 nM
- TGI (SN12C renal): 3140 nM
- GI50 (M14 melanoma): 586 nM
- TGI (M14 melanoma): 1870 nM
- GI50 (NCI-H460 NSCLC): 413 nM
- TGI (NCI-H460 NSCLC): 1570 nM
- GI50 (HOP-62 NSCLC): 357 nM
- TGI (HOP-62 NSCLC): 1410 nM
- GI50 (PC-3 prostate): 10600 nM
- TGI (PC-3 prostate): 28200 nM
- GI50 (HOP-92 NSCLC): 470 nM
- TGI (HOP-92 NSCLC): 21800 nM
- GI50 (SF-268 CNS): 318 nM
- TGI (SF-268 CNS): 789 nM
- GI50 (MOLT-4 leukemia): 194 nM
- TGI (MOLT-4 leukemia): 342 nM
- GI50 (NCI-H23 lung): 257 nM
- TGI (NCI-H23 lung): 518 nM
- GI50 (IGROV1 ovarian): 816 nM
- TGI (IGROV1 ovarian): 20500 nM
- GI50 (RPMI-8226 leukemia): 203 nM
- TGI (RPMI-8226 leukemia): 373 nM
- GI50 (U251 glioblastoma): 314 nM
- TGI (U251 glioblastoma): 855 nM
- GI50 (NCI-H226 lung): 1700 nM
- TGI (NCI-H226 lung): 3450 nM
- GI50 (HL-60(TB) leukemia): 233 nM
- TGI (HL-60(TB) leukemia): 428 nM
- GI50 (CAKI-1 renal): 494 nM
- TGI (CAKI-1 renal): 15800 nM
- GI50 (TK-10 renal): 8170 nM
- TGI (TK-10 renal): > 100000 nM
- GI50 (MDA-MB-435 melanoma): 7800 nM
- TGI (MDA-MB-435 melanoma): > 100000 nM
- GI50 (SK-MEL-2 melanoma): 450 nM
- TGI (SK-MEL-2 melanoma): 772 nM
- GI50 (UACC-62 melanoma): 249 nM
- TGI (UACC-62 melanoma): 581 nM
